# Measured values taken from patent US20050043289A1, “Crystalline hydrochloride of 7-(((5-amino-1,2,4-thiadiazol-3-yl) (fluoromethoxyimino)acetyl)amino)-3-((imino-1-piperazinylmethyl)methylhydrazono)-methyl-3-cephem-4-carboxylic acid” (priority 2002, published 2005).
# Where a name gives a salt, the structure may show the parent alone. Read-outs that look alike come from different tables or passages of the source.
# Legend:
# [1] = storage stability in solid form; format: physicochemical; settings: e.g. at 5° C.
# solubility in water = format: physicochemical
# Excerpt: Thus, a compound of the present invention is appropriate for pharmaceutical administration.
# [2] = stability in aqueous solution; format: physicochemical; settings: pH values of 3-5, 5° C.
# [3] = water uptake in presence of environmental moisture (stress test) / water content constancy; format: physicochemical; settings: Karl Fischer, over 6 weeks
# Excerpt: A monohydrochloride, produced according to the present invention, may be obtained in the form of a trihydrate, which, after appropriate drying, has a water content of ca. 7% to 10%, such as 7.3% to 9.6% (theory: 8.2%). The monohydrochloride in the form of a trihydrate may be dried, e.g. over P2O5, to a water content of 1.5%. […] The chloride content of the monohydrochloride in the form of a trihydrate is between 5% and 6% (theory: 5.5%).
# Water content (Karl Fischer): 9.6%. […] HCl (titration): 5.5%. Isopropanol-content: 0.05%. Content of a compound of formula I (based on the free base): […]. pH and [β]^20D of a 1% solution in water: pH: 4.3; [β]^20589=−167±1°
# [4] = system: methicillin resistant Staphylococcus aureus; test: MIC, Agar Dilution Test and/or Micro Dilution Test (NCCLS); format: cell-based; settings: against methicillin resistant Staphylococcus aureus
# Excerpt: (§1) In particular, the compounds of the present invention show antimicrobial, e.g. antibacterial activity against aerobic and anaerobic growing bacteria, e.g. gram negative and gram positive bacteria such as Enterobacter, e.g. Enterobacter cloacae; Enterococcus, e.g. Enterococcus faecalis; Moraxella, e.g. Moraxella catarrhalis; Haemophilus, e.g. Haemophilus influenza; Klebsiella, e.g. Klebsiella edwardsii, Klebsiella pneumoniae; Streptococcus, e.g. Streptococcus pyogenes; Staphylococcus, e.g. Staphylococcus aureus MSSA (methicillin sensitive strains); Staphylococcus aureus MRSA (methicillin resistant strains); Escherichia coli; Proteus, e.g. Proteus mirabilis; Salmonella, e.g. Salmonella typhimurium; Serratia, e.g. Serratia marcescens; Pneumococci, e.g. Streptococcus pneumoniae (penicillin resistant and multi-drug resistant strains); in vitro in the Agar Dilution Test and/or Micro Dilution Test for bacteria according to National Committee for Clinical Laboratory Standards (NCCLS) 1993, • Document M7-A3, Vol. 13, No.25: “Methods for dilution Antimicrobial Susceptibility Tests for Bacteria that Grow Aerobically”—Third Edition, Approved Standard”; and • Document M11 -A3 for anaerobic bacteria in a concentration from about 0.001 to about […] (MIC), e.g. using strains including Staphylococcus aureus (ATCC 29213 and ATCC 9144); Enterococcus faecalis (ATCC 29212); Haemophilus influenza (NTCC 49247 and NCTC 11931); Escherichia coli (ATCC 25922 and ATCC 35218); Klebsiella pneumoniae (NCTC 11228); Klebsiella edwardsii (NCTC 10896); and in vivo in the septicaemia mouse model, in accordance to the method description Nr. […] E.g., mice are infected with an ED 95% of Staphylococcus aureus (ATCC 4995), Streptococcus pyogenes (ATCC 29218), Escherichia coli (Δ 12 NFI culture collection) and are treated 1.5 and 24 hours after infection. The ED 50% values ranging form ca. 0.2 to 50 mg/kg body weight are calculated by Probit analysis of the administered dosages of compounds. Activity is determined by numbers of surviving animals per group of 8 mice per dosage unit day 5 after infection. The compounds of the invention show an surprising overall activity spectrum.
# Enterococcus faecalis = test: as above; format: cell-based; settings: against Enterococcus faecalis
# Excerpt: as §1
# [5] = system: multi-drug resistant Pneumococcus; test: as above; format: cell-based; settings: Streptococcus pneumoniae; against multi-drug resistant Pneumococcus
# Excerpt: as §1
# [6] = system: Staphylococcus aureus (MSSA); test: as above; format: cell-based; settings: against Staphylococcus aureus (MSSA)
# Excerpt: as §1
# Enterobacter cloacae = test: as above; format: cell-based; settings: against Enterobacter cloacae
storage time with practically no or only slight decomposition [1],solubility (solubility in water; in water at 5°C.),"solubility (solubility in water; in water at room temperature, read-out: solubility)",stability in aqueous solution [2],MIC [4],MIC (Enterococcus faecalis),MIC [5],MIC [6],MIC (Enterobacter cloacae),SMILES,water content constancy [3]
at least 4 weeks,≥ 2 % (w/v),~100 mg/mL,remains stable for at least one week,,,,,,CN(/N=C/C1=C(C(=O)O)N2C(=O)[C@@H](NC(=O)/C(=N\OCF)c3nsc(N)n3)C2SC1)C(=N)N1CCNCC1 (stereo partly shown),
,,,,0.8 to 12.6 µg/mL,0.1 to 0.8 µg/mL,0.4 to 0.8 µg/mL,0.2 to 0.8 µg/mL,0.025 to 12.8 µg/mL,"CN(/N=C/C1=C(C(=O)O)N2C(=O)[C@@H](NC(=O)/C(=N\OCF)c3nsc(N)n3)C2SC1)C(=N)N1CCNCC1 (stereo partly shown) [Example 2, 7-{[(5-amino-1,2,4-thiadiazol-3-yl)-(Z)-(fluoromethoxyimino)acetyl]amino}-3-[(imino-1-piperazinylmethyl)methylhydrazono]-methyl-3-cephem-4-carboxylic acid in the form of a monohydrochloride and in the form of a trihydrate]",Water content constant (±6%) over 6 weeks
